Measured values from patent EP4624457A1, “I[…] DERIVATIVES, I[…] NEURODEGENERATIVE DISEASES” (Centre National de la Recherche Scientifique, priority 2024, dated 2025).
Several values for one entry are separate records, joined by “and”; a condition that tells them apart may be missing. Equal values may be shown once. Read-outs that look alike come from different tables or passages of the source.

Target: T1, human α7 nAChR subtype (Homo sapiens, UniProt P36544)
T1 construct: expressed in transfected cells; host or cells: Xenopus laevis oocytes injected with mRNA
Assay: Two-electrode voltage clamp electrophysiology on Xenopus laevis oocytes expressing the α7 nAChR
Type: cell-based
Settings: for IC50: antagonistic activity, TEVC, value (95% CI), 100 µM ACh, 45 s preincubation, Figures 5 and 7
Source text: The emerging cyclic imines toxins (CiTXs) of global distribution across coastal environments that are produced by dinoflagellates move fast up the human food chain through shellfish. The CiTX family includes 44 compounds: 7 gymnodimines (A-E, 12-methylgymnodimine and 16-desmethyl gymnodimine D), 16 spirolides (A-D, G-I, 13-desmethyl spirolide-C, 27-Hydroxy-13-desmethyl spirolide-C, 13,19-didesmethyl spirolide-C, 20-hydroxy-13,19-didesmethyl spirolide- C, 27-hydroxy-13,19-spirolide-C, 27-Oxo-13,19-didesmethyl spirolide-C, 13-desmethyl spirolide-D, 20-hydroxy-13,19-didesmethyl spirolide-D and 20-methyl spirolide-G), 8 pinnatoxins (A-H), 3 pteriatoxins (A-C), 6 prorocentrolides (A-B, 4- hydroxyprorocentrolide, 9,51-dihydro prorocentrolide, 30-sulfate prorocentrolide and 14-O-acetyl-4-hydroxyprorocentrolide), 1 spiroprorocentrimine, 2 portimines (A and B), and 1 kabirimine, (Aráoz et al. (2020) Cyclic imine toxins survey in coastal european shellfish samples: Bioaccumulation and mode of action of 28-O-palmitoyl ester of pinnatoxin-G. First report of portimine-A bioaccumulation. Harmful Algae, 98 [1]). The spiroimine moiety is the major feature characterizing cyclic imine toxins. The exception to this rule is prorocentrolides in which a hexahydroisoquinoline group replaces the spiroimine motif, (Torigoe et al. (1988) Prorocentrolide, a toxic nitrogenous macrocycle from a marine dinoflagellate, Prorocentrum-lima. Journal of the American Chemical Society, 110:7876-7877 [2]). Portimines display a 5-membered cyclic imine ring; gymnodimines, prorocentrolides, spiroprorocentrimines and kabirimine present a 6-membered imine ring, while spirolides, pinnatoxins and pteriatoxins display a 7-membered imine ring. Cyclic imine toxins are fast acting neurotoxins that, when administered intraperitoneally or by gavage at lethal doses, kill mice by respiratory arrest within minutes following blockade of neuromuscular nicotinic acetylcholine receptors (nAChR). The mode of action of several cyclic imines on nAChRs has been characterized, namely: gymnodimine-A, 13- desmethyl spirolide- C, 13,19-didesmethyl spirolide-C, 20-methyl spirolide-G, pinnatoxin-A, pinnatoxin-G, prorocentrolide-A and portimine, (Lamoise et al. (2017) Physico-chemical and functional characterization of portimine purified from Vulcanodinium rugosum strain IFR-VRU-01. In "Marine and Fresh-Water Harmful Algae". Proceedings of the 17th International Conference on Harmful Algae (Proença, L.A.O. and Hallegraeff, G. eds) pp. 126-129 ISSHA and IOC/UNESCO, Florianapolis; Molgó et al. (2017) Cyclic imine toxins from dinoflagellates: a growing family of potent antagonists of the nicotinic acetylcholine receptors. Journal of Neurochemistry, 142:41-51 [4]). They are potent antagonists of muscular and neuronal nicotinic acetylcholine receptors with pinnatoxin-A displaying picomolar affinities towards the α7 nicotinic acetylcholine receptor subtype (Aráoz et al. (2011) Total synthesis of pinnatoxins A and G and revision of the mode of action of pinnatoxin A. Journal of the American Chemical Society 133(27):10499-10511 [5]). In contrast, prorocentrolide and portimine show micromolar affinities towards the α7 nicotinic acetylcholine receptor subtype (Lamoise et al. (2017), Stivala et al. (2015) Synthesis and biology of cyclic imine toxins, an emerging class of potent, globally distributed marine toxins. Natural Product Reports, 32(3):411-435 [6]) (Table1). Table 1. Antagonistic activity of CiTX (Two-Electrodes Voltage Clamp electrophysiology).
• Figure 1 represents the chemical structure of ingrilimine according to compound (Illa) formula. • Figure 2 represents the cytotoxic activity of ingrilimine. A2780 ovarian and HT29 colorectal carcinoma cells were grown in RPMI 1640 supplemented with 10% fetal calf serum (FCS) and 1% glutamine. […]

T1 sequence (P36544 23-502): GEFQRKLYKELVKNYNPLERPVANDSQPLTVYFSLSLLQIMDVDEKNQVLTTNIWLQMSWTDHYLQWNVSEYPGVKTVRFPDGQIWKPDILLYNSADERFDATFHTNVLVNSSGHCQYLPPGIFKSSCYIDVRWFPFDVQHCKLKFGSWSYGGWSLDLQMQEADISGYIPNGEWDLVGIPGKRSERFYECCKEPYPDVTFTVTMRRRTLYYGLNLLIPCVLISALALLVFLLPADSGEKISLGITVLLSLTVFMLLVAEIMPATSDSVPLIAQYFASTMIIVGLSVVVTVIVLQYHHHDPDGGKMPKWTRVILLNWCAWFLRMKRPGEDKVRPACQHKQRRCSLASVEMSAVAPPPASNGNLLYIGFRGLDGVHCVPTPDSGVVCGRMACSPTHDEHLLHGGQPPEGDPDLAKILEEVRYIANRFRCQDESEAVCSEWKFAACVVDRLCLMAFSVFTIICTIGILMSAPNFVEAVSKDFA

Structure (SMILES)	peak amplitude relative to the peak amplitude evoked by 100 µM ACh (agonist activity, 10 µM ingrilimine) [%]	behaviour at micromolar concentrations (micromolar concentrations, antagonist at nanomolar concentrations)	IC50 (nAChR subtype (nM; 95% CI) α7 (human))	times more potent than portimine against the human α7 nAChR subtype (ratio of IC50 values)	IC50 (read-out: nAChR subtype (nM; 95% CI) α7 (human)) [nM]
C=CC1=C[C@@H]2C[C@@H](O)[C@@H](O)/C(C)=C/C/C(C)=C/CCC3=NCCC[C@]32CC1 [Ingrilimine, ingrilimine]	-25	behaves as an agonist	2.3 nM and 2.29 nM	~ 10 000 times	–
C=CC1=C[C@@H]2[C@@H]3O[C@]4(CC[C@H](O4)[C@@H](C)C[C@@H](O)C3=O)C[C@H](O)C3=NCC[C@@]32CC1 [Portimine-A]	–	–	–	–	21200
